Source: patent US20100267561A1, “HERBICIDAL PYRIDAZINONE DERIVATIVES” (priority 2007, published 2010)

Assays:
Type in all cases: in vivo
[1] = test system: barnyardgrass (Echinochloa crus-galli); assay: Test A pre-/postemergence plant response
Description: (§1) Seeds of species selected from barnyardgrass (Echinochloa crus-galli), large crabgrass (Digitaria sanguinalis), giant foxtail (Setaria faberi), blackgrass (Alopecurus myosuroides), canarygrass (Phalaris minor), morningglory (Ipomoea coccinea), pigweed (Amaranthus retroflexus), velvetleaf (Abutilon theophrasti), wheat (Triticum aestivum), and corn (Zea mays) were planted into a blend of loam soil and sand and treated preemergence with a directed soil spray using test chemicals formulated in a non-phytotoxic solvent mixture which included a surfactant. At the same time these species were also treated with postemergence applications of test chemicals formulated in the same manner.
(§2) Plants ranged in height from 2 to 10 cm and were in the one- to two-leaf stage for the postemergence treatment. Treated plants and untreated controls were maintained in a greenhouse for approximately 10 days, after which time all treated plants were compared to untreated controls and visually evaluated for injury. Plant response ratings, summarized in Table A, are based on a 0 to 100 scale where 0 is no effect and 100 is complete control. A dash (-) response means no test results.

corn (Zea mays) = assay: Test A pre-/postemergence plant response
Description: as §1, §2

[2] = test system: giant foxtail (Setaria faberi); assay: Test A pre-/postemergence plant response
Description: as §1, §2

[3] = test system: large crabgrass (Digitaria sanguinalis); assay: Test A pre-/postemergence plant response
Description: as §1, §2

[4] = test system: morningglory (Ipomoea coccinea); assay: Test A pre-/postemergence plant response
Description: as §1, §2

[5] = test system: pigweed (Amaranthus retroflexus); assay: Test A pre-/postemergence plant response
Description: as §1, §2

[6] = test system: velvetleaf (Abutilon theophrasti); assay: Test A pre-/postemergence plant response
Description: as §1, §2

[7] = test system: wheat (Triticum aestivum); assay: Test A pre-/postemergence plant response
Description: as §1, §2

[8] = test system: barnyardgrass (Echinochloa crus-galli); assay: Test B flooded paddy test plant response
Description: (§3) Plant species in the flooded paddy test consisted of rice (Oryza sativa), umbrella sedge (Cyperus difformis), ducksalad (Heteranthera limosa) and barnyardgrass (Echinochloa crus-galli) grown to the 2-leaf stage for testing. At time of treatment, test pots were flooded to 3 cm above the soil surface, treated by application of test compounds directly to the paddy water, and then maintained at that water depth for the duration of the test. Treated plants and controls were maintained in a greenhouse for 13 to 15 days, after which time all species were compared to controls and visually evaluated. Plant response ratings, summarized in Table B, are based on a scale of 0 to 100 where 0 is no effect and 100 is complete control. A dash (-) response means no test result.

[9] = test system: ducksalad (Heteranthera limosa); assay: Test B flooded paddy test plant response
Description: as §3

rice (Oryza sativa) = assay: Test B flooded paddy test plant response
Description: as §3

[10] = test system: umbrella sedge (Cyperus difformis); assay: Test B flooded paddy test plant response
Description: as §3

[11] = Postemergence, 125 g ai/ha, 0 to 100 scale, 0 no effect, 100 complete control
[12] = Postemergence, 500 g ai/ha, 0 to 100 scale, 0 no effect, 100 complete control
[13] = Preemergence, 125 g ai/ha, 0 to 100 scale (0 no effect, 100 complete control)
[14] = Preemergence, 500 g ai/ha, 0 to 100 scale (0 no effect, 100 complete control)
[15] = Flood (flooded paddy test), 62 g ai/ha, scale 0 to 100, 0 no effect, 100 complete control
[16] = Flood (flooded paddy test), 125 g ai/ha, scale 0 to 100, 0 no effect, 100 complete control
[17] = Flood (flooded paddy test), 250 g ai/ha, scale 0 to 100, 0 no effect, 100 complete control
[18] = Flood, 31 g ai/ha, scale 0 to 100

Cc1nn(-c2ccc(Cl)cc2)cc1-c1c(O)cnn(C)c1=O [Compound 29]
80: Plant response rating, Foxtail, Giant [2, 12]
0: Plant response rating, Barnyardgrass [1, 13] | Plant response rating, Corn (corn (Zea mays); [11]) | Plant response rating, Corn (corn (Zea mays); [12]) | Plant response rating, Corn (corn (Zea mays); [13]) | Plant response rating, Corn (corn (Zea mays); [14]) | Plant response rating, Foxtail, Giant [2, 11] | Plant response rating, Crabgrass, Large [3, 11] | Plant response rating, Crabgrass, Large [3, 13] | Plant response rating, Morningglory [4, 11] | Plant response rating, Morningglory [4, 12] | Plant response rating, Morningglory [4, 13] | Plant response rating, Morningglory [4, 14] | Plant response rating, Pigweed [5, 11] | Plant response rating, Pigweed [5, 12] | Plant response rating, Pigweed [5, 13] | Plant response rating, Pigweed [5, 14] | Plant response rating, Velvetleaf [6, 11] | Plant response rating, Velvetleaf [6, 12] | Plant response rating, Velvetleaf [6, 13] | Plant response rating, Velvetleaf [6, 14] | Plant response rating, Wheat [7, 11] | Plant response rating, Wheat [7, 13] | Plant response rating, Wheat [7, 14] | Plant response rating, Barnyardgrass [8, 15] | Plant response rating, Barnyardgrass [8, 16] | Plant response rating, Barnyardgrass [8, 17] | Plant response rating, Barnyardgrass [8, 18] | Plant response rating, Ducksalad [9, 15] | Plant response rating, Ducksalad [9, 16] | Plant response rating, Ducksalad [9, 17] | Plant response rating, Ducksalad [9, 18] | Plant response rating, Rice (rice (Oryza sativa); [15]) | Plant response rating, Rice (rice (Oryza sativa); [16]) | Plant response rating, Rice (rice (Oryza sativa); [17]) | Plant response rating, Rice (rice (Oryza sativa); [18]) | Plant response rating, Sedge, Umbrella [10, 15] | Plant response rating, Sedge, Umbrella [10, 16] | Plant response rating, Sedge, Umbrella [10, 17] | Plant response rating, Sedge, Umbrella [10, 18]
20: Plant response rating, Wheat [7, 12]
70: Plant response rating, Barnyardgrass [1, 14]
10: Plant response rating, Barnyardgrass [1, 11]
40: Plant response rating, Crabgrass, Large [3, 14]
50: Plant response rating, Barnyardgrass [1, 12] | Plant response rating, Crabgrass, Large [3, 12]
60: Plant response rating, Foxtail, Giant [2, 13]
100: Plant response rating, Foxtail, Giant [2, 14]

COc1ccc(-c2cc(C)n(-c3c(O)cnn(C)c3=O)n2)cc1 [Compound 62]
0: Plant response rating, Corn (corn (Zea mays); [11]) | Plant response rating, Corn (corn (Zea mays); [13]) | Plant response rating, Foxtail, Giant [2, 13] | Plant response rating, Morningglory [4, 11] | Plant response rating, Morningglory [4, 12] | Plant response rating, Morningglory [4, 13] | Plant response rating, Morningglory [4, 14] | Plant response rating, Pigweed [5, 11] | Plant response rating, Pigweed [5, 12] | Plant response rating, Pigweed [5, 13] | Plant response rating, Pigweed [5, 14] | Plant response rating, Velvetleaf [6, 11] | Plant response rating, Velvetleaf [6, 12] | Plant response rating, Velvetleaf [6, 13] | Plant response rating, Velvetleaf [6, 14] | Plant response rating, Wheat [7, 11] | Plant response rating, Wheat [7, 13] | Plant response rating, Wheat [7, 14] | Plant response rating, Barnyardgrass [8, 15] | Plant response rating, Barnyardgrass [8, 16] | Plant response rating, Barnyardgrass [8, 17] | Plant response rating, Barnyardgrass [8, 18] | Plant response rating, Ducksalad [9, 15] | Plant response rating, Ducksalad [9, 16] | Plant response rating, Ducksalad [9, 17] | Plant response rating, Ducksalad [9, 18] | Plant response rating, Rice (rice (Oryza sativa); [15]) | Plant response rating, Rice (rice (Oryza sativa); [16]) | Plant response rating, Rice (rice (Oryza sativa); [17]) | Plant response rating, Rice (rice (Oryza sativa); [18]) | Plant response rating, Sedge, Umbrella [10, 15] | Plant response rating, Sedge, Umbrella [10, 16] | Plant response rating, Sedge, Umbrella [10, 17] | Plant response rating, Sedge, Umbrella [10, 18]
90: Plant response rating, Barnyardgrass [1, 14] | Plant response rating, Crabgrass, Large [3, 12]
60: Plant response rating, Foxtail, Giant [2, 12] | Plant response rating, Crabgrass, Large [3, 14]
40: Plant response rating, Barnyardgrass [1, 11] | Plant response rating, Corn (corn (Zea mays); [12]) | Plant response rating, Foxtail, Giant [2, 11]
20: Plant response rating, Corn (corn (Zea mays); [14]) | Plant response rating, Crabgrass, Large [3, 13] | Plant response rating, Wheat [7, 12]
30: Plant response rating, Foxtail, Giant [2, 14]
10: Plant response rating, Barnyardgrass [1, 13]
50: Plant response rating, Crabgrass, Large [3, 11]
100: Plant response rating, Barnyardgrass [1, 12]
